Columns and labels:
[1] = test system: rats fed a palatable diet; details: cited from earlier work; for inhibition of weight gain: model of excessive eating
[2] = test system: obese animal after olanzapine treatment; design: method as in PMID 11985350, PMID 22695490; details: cited from earlier work
obese adults = test system: obese adults; design: method as in earlier work; details: cited from earlier work
mice fed a high-fat diet = test system: mice fed a high-fat diet; design: method as in PMID 15447739; details: highest dose; cited from earlier work
[3] = design: method as in PMID 15447739; details: cited from earlier work
sigma-1 receptor = biological target: sigma-1 receptor; design: method as in PMID 34908391; details: Figure 1; read-out: σ1R Ki; cited from earlier work
sigma-2 receptor = biological target: sigma-2 receptor; design: method as in PMID 34908391; details: Figure 1; read-out: σ2R Ki; cited from earlier work
H3R = biological target: T1, H3R (Homo sapiens, UniProt Q9Y5N1); assay: Affinity at the H3R (literature values); format: binding; details: H3R Ki relative to sigma-2 Ki
T1 construct: the Aequoscreen line co-expresses apoaequorin

induced obesity in mice = test system: induced obesity in mice; design: method as in PMID 29802412; details: i.p. 10 mg/kg b.w. for 14 days; cited from earlier work
[4] = test system: rats fed a palatable diet; assay: Model of excessive eating: body weight, calorie intake, fat pads; format: in vivo, female Wistar rats
Procedure: Experiments were performed on female Wistar rats with an initial body weight of 140–160 g. The animals were housed in plastic cages (2 rats per cage) at a constant room temperature of 22 ± 2 °C, with a 12:12 h light/dark cycle. Water and food were available ad libitum. The randomly established experimental groups consisted of 6 rats for pharmacological studies and 3 rats for pharmacokinetic studies. All experiments were conducted in accordance with the Guide to the Care and Use of Experimental Animals, and were approved by the Jagiellonian University in Krakow Local Ethics Committee for Experiments on Animals (Permission No: 185/2017, 220/2019 and 223A/2019).
Female rats were randomly divided into several groups (n = 6) and studied for 4 weeks. The groups were as follows: standard diet + vehicle, palatable diet + vehicle, palatable diet + KSK-60 (1 mg/kg), palatable diet + KSK-60 (10 mg/kg), palatable diet + KSK-74 (1 mg/kg), palatable diet + KSK-74 (10 mg/kg), palatable diet + phentermine (7 mg/kg).
The studies for the 1 mg/kg b.w. and 10 mg/kg b.w. doses were performed at different times, so the parameters studied were compared to the respective control groups.
Rats fed a palatable diet had access to a diet consisting of milk chocolate with nuts, cheese, salted peanuts, and 7% condensed milk, and simultaneously to a standard feed (Labofeed B, Morawski Manufacturer Feed, Poland) for 4 weeks. The water was available ad libitum. Animals had access to palatable products, but also to the standard feed. Most importantly, feeding was not in any way forced, as in other models where animals were fed only a high-fat diet, or temporarily deprived of food (binge eating models). In the case of our model, rats decided themselves when, what, and how much to eat. The weight was evaluated daily. Calorie intake was evaluated three times a week. A palatable diet contained 100 g of peanuts—612 kcal; 100 mL of condensed milk—131 kcal; 100 g of milk chocolate—529 kcal; and 100 g of cheese—325 kcal. The standard diet contained 100 g of feed—280 kcal. Standard diet (fats 8%, carbohydrates 67%, proteins 25%) contained 100 g feed—280 kcal.
The palatable control group (palatable diet + vehicle) received vehicle (1% Tween 80 i.p., daily, for 4 weeks), while palatable test groups were injected i.p. with KSK-60 (1 mg or 10 mg/kg i.p, daily, for 4 weeks), KSK-74 (1 mg/kg or 10 mg/kg i.p, daily, for 4 weeks), or phentermine (7 mg/kg i.p., daily, for 4 weeks), respectively.
On the 31st day, 20 min after i.p. administration of heparin (5000 units/rat) and thiopental (70 mg/kg b.w.), animals were sacrificed, and plasma as well as peritoneal fat pads were collected (food was stopped for 6 h prior to organ, tissue, and plasma collection) for further study.

[5] = test system: rats fed a palatable diet; assay: Plasma triglyceride and corticosterone levels in the model of excessive eating; format: in vivo, female Wistar rats; details: KSK 10 mg/kg, phentermine 7 mg/kg
Procedure: Blood was collected from the left carotid artery and then centrifuged at 600× g (15 min, 4 °C) to obtain plasma.
To determine plasma triglyceride levels, standard enzymatic and spectrophotometric tests (Cat. No 1-053-A150, Biomaxima S.A., Lublin, Poland) were used. The ELISA Kit (Item No. 501320, Cayman Chemical, Ann Arbor, MI, USA) was used to determine corticosterone levels in plasma.

adipose tissue = assay: Histological examination of adipose tissue (Masson's trichrome); format: in vivo, female Wistar rats; details: palatable diet
Procedure: Adipose tissue samples were prepared for histology using Masson’s trichrome stain (Merck) by fixation in 4% formaldehyde, dehydration in graded alcohol, and embedded in paraffin. The tissue samples were then sectioned using a microtome of 5 μm thickness. Six random fields from each section were analyzed in a blinded manner with an Olympus BX41 light microscope (Olympus, Tokyo, Japan) at magnifications of ×20, ×40 and ×100, and digital images were captured with an Olympus UC90 color camera. The quantitation of the number of adipocytes was performed in eight fields/slide with ×100 objective using an image analysis system: CellSensDimension (Olympus, Tokyo, Japan). The numerical density of the adipocytes was obtained by counting the total number of adipocytes per high-power field ([…]), and then this number was converted to 0.1 mm^2. According to stereometric rules, adipocytes tangent to the left and top edges of the image field were not counted. A semi-quantitative scale was used to assess the inflammatory response in adipose tissue. The following were evaluated on a subjective scale: inflammatory cell infiltration between adipocytes (0—normal, 1—few cells, 2—local clusters, and 3—extensive infiltrates), perivascular infiltration of immune cells (0—normal, 1—few cells, and 2—ring of inflammatory cells), widening of the septum (0—normal and 1—widening), and capillary congestion (0—normal and 1—congestion). A sum calculated from independently assessed values was calculated for each animal as an index of inflammation.

[6] = test system: peritoneal adipose tissue; assay: Leptin, resistin, IL-6 and MCP-1 levels in adipose tissue (ELISA); format: in vivo, female Wistar rats; details: KSK 10 mg/kg i.p., phentermine 7 mg/kg
Procedure: The frozen peritoneal adipose tissue was weighed, and homogenates were prepared by homogenizing 1 g of tissue in 4 mL of 0.1 M phosphate buffer, pH 7.4, using the IKA-ULTRA-TURRAX T8 homogenizer. The adipose tissue homogenates were then used for biochemical assays.
To determine the levels of leptin, resistin, IL-6, and MCP-1 in adipose tissue, the standard ELISA Kit (Cat. No E0561Ra, Cat. No E0211Ra, Cat. No E0135Ra, Cat. No E0193Ra, Bioassay Technology Laboratory, Shanghai, China) was used. To determine the levels of protein, a standard spectrophotometric test (Cat. No 1-008-B210, Biomaxima S.A. Lublin, Poland) was used.

T1 sequence (Q9Y5N1 whole entry): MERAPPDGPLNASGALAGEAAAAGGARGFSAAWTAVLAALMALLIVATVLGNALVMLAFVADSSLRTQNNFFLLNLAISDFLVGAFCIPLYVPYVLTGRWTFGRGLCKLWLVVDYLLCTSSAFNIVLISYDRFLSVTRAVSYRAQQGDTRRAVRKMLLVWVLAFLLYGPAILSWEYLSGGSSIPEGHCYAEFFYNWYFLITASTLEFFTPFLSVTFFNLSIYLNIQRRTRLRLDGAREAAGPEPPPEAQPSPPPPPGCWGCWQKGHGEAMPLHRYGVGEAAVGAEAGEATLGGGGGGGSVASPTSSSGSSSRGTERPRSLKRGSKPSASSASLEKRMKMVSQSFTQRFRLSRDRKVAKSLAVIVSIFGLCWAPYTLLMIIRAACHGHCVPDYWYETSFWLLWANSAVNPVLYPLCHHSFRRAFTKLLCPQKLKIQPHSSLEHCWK

## CNCCc1ccccn1 [Betahistine, reference compound]
[1]; rat model of excessive eating
  high-density lipoprotein (HDL) levels, long-term administration: increases high-density lipoprotein (HDL) levels
  weight gain, long-term administration: slows weight gain
[2]
  body weight: induced significant weight loss
Obese adults
  reduction of body weight and waist circumference compared with Orlistat: did not show significant differences

## CN(C)[C@@H]1CCN(CCCOc2ccc(-c3ccc(C#N)cc3)cc2)C1 [Compound A-331440]
Mice fed a high-fat diet
  body weight: induced weight loss comparable to mice fed a low-fat diet
[3]
  reason for exclusion from clinical trials: genotoxicity

## CC(=O)c1ccc(OCCCCCCN2CCN(c3ccncc3)CC2)cc1 [KSK-59]
sigma-1 receptor
  Ki: 37.8 nM
sigma-2 receptor
  Ki: 151 nM
[1]
  inhibition of weight gain: high efficacy in inhibiting weight gain

## CC(=O)c1ccc(OCCCCCCCCN2CCN(c3ccncc3)CC2)cc1 [KSK-73]
H3R
  affinity ratio H3/sigma-2 receptors: 0.68
sigma-1 receptor
  Ki: 408 nM
sigma-2 receptor
  Ki: 59.7 nM
[1]
  inhibition of weight gain: high efficacy in inhibiting weight gain

## Clc1ccc(CCCOCCCN2CCCCC2)cc1 [Pitolisant]
Induced obesity in mice
  body weight and metabolic disturbances: positive influence on body weight, glucose tolerance, and lipid profile

## CC(C)(N)Cc1ccccc1 [phentermine, reference compound]
[4]; KSK 10 mg/kg, phentermine 7 mg/kg, end of experiment
  amount of peritoneal fat pads vs palatable diet + vehicle: fewer peritoneal fat pads
[4]; i.p. 28 days, KSK 10 mg/kg b.w., phentermine 7 mg/kg b.w.
  calorie intake vs control group fed palatable feed: did not significantly influence the amount of calories consumed
[4]; i.p. daily 4 weeks, KSK-60/KSK-74 10 mg/kg b.w., phentermine 7 mg/kg
  body weight gain vs palatable diet + vehicle: gained less weight
[5]
  plasma triglyceride levels vs palatable diet + vehicle: lower plasma triglyceride levels
Adipose tissue; 7 mg/kg
  capillary congestion and crown-like structures in adipose tissue: marked capillary congestion and frequent appearance of crown-like structures
Adipose tissue; KSK 10 mg/kg, phentermine 7 mg/kg
  inflammatory infiltrates in adipose tissue (histological description): slightly less inflammatory infiltrates
Adipose tissue; KSK 10 mg/kg, phentermine 7 mg/kg, means ± SD, n = 6
  number of adipocytes per 0.1 mm^2 of cross-sectional area: more similar to the results of the palatable diet + vehicle group
Adipose tissue; KSK 10 mg/kg, phentermine 7 mg/kg, standard diet + vehicle 0.5 ± 0.34
  inflammatory index of the adipose tissue: 4.16 ± 0.48
Adipose tissue; n = 6 per group
  number of rats, Capillary Congestion grade 1-Congestion: 6
  number of rats, Inflammatory Cell Infiltration grade 1-Few Cells: 4
  number of rats, Inflammatory Cell Infiltration grade 2-Local Clusters: 2
  number of rats, Perivascular Infiltration grade 0-Normal: 1
  number of rats, Perivascular Infiltration grade 1-Few Cells: 4
  number of rats, Perivascular Infiltration grade 2-Ring of Cells: 1
  number of rats, Widening of the Septum grade 0-Normal: 1
  number of rats, Widening of the Septum grade 1-Widening: 5
[6]
  resistin levels in adipose tissue vs palatable diet + vehicle: did not influence
[6]; vs palatable diet + vehicle unless worded otherwise
  leptin levels in adipose tissue: did not influence

Reference: publication PMC9266460, “KSK-74: Dual Histamine H3 and Sigma-2 Receptor Ligand with Anti-Obesity Potential” (International Journal of Molecular Sciences, 2022)
